The values that follow come from patent US11420961B2, “Heterocyclic compounds” (Hoffmann-La Roche Inc., priority 2017, dated 2022).

For the test, the target named is T1, MAGL (recombinant wild-type) (Homo sapiens, UniProt Q99685).
T1 sequence (Q99685 1-303): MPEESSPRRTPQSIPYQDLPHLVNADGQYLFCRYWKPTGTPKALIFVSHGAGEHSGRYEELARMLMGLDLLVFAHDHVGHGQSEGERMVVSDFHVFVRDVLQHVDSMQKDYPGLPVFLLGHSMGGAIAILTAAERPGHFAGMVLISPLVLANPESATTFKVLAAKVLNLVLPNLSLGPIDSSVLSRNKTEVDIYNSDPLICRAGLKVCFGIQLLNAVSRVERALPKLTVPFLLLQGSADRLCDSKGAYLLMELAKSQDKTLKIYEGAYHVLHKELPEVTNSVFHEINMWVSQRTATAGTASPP
Put plainly: 4-NPA assay: MAGL inhibitory activity by hydrolysis of 4-nitrophenylacetate, absorbance at 405 nm. In kind it is biochemical. Particulars: 4-NPA assay (values without footnote [a]). The protocol: Compounds were profiled for MAGL inhibitory activity by measuring the enzymatic activity of MAGL by following the hydrolysis of 4-nitorphenylacetate resulting in 4-nitrophenol, which absorbs at 405-412 nm (G. G. Muccioli, G. Labar, D M. Lambert, Chem. Bio. Chem. 2008, 9, 2704-2710). This assay is hereinafter abbreviated “4-NPA assay”.
The 4-NPA assay was carried out in 384 well assay plates (black with clear bottom, non-binding surface treated, Corning Ref. 3655) in a total volume of 40 μL. Compound dilutions were made in 100% DMSO (VWR Chemicals 23500.297) in a polypropylene plate in 3-fold dilution steps to give a final concentration range in the assay from 25 μM to 1.7 nM. 1 μL compound dilutions (100% DMSO) were added to 19 μL MAGL (recombinant wild-type) in assay buffer (50 mM TRIS (GIBCO, 15567-027), 1 mM EDTA (Fluka, 03690-100 ml)). The plate was shaked for 1 min at 2000 rpm (Variomag Teleshake) and then incubated for 15 min at RT. To start the reaction, 20 μL 4-Nitrophenlyacetate (Sigma N-8130) in assay buffer with 6% EtOH was added. The final concentrations in the assay were 1 nM MAGL and 300 μM 4-Nitrophenylacetate. After shaking (1 min, 2000 rpm) and 5 min incubation at RT, the absorbance at 405 nm was measured for a first time (Molecular Devices, SpectraMax Paradigm). A second measurement was then done after incubation for 80 min at RT. From the two measurements, the slope was calculated by substracting the first from the second measurement.

By IC50 is commonly meant the point on the concentration scale where inhibition reaches its midpoint.

As to `COc1ccc(C(c2ccccn2)C2CCN(C(=O)c3ccc4c(c3)NC(=O)CO4)CC2)cc1OC` (single isomer, unassigned) [Example 116, 6-[4-[(R or S)-(3,4-Dimethoxyphenyl)-(2-pyridyl)methyl]piperidine-1-carbonyl]-4H-1,4-benzoxazin-3-one], the IC50 was 55.4 nM.

For `COc1ccc(C(c2ccccn2)C2CCN(C(=O)c3ccc4c(c3)NC(=O)CO4)CC2)cc1OC` (single isomer, unassigned) [Example 117, 6-[4-[(S or R)-(3,4-Dimethoxyphenyl)-(2-pyridyl)methyl]piperidine-1-carbonyl]-4H-1,4-benzoxazin-3-one], the IC50 was 7.3 nM.

On to `O=C1COc2ccc(C(=O)N3CCC(C(c4ccc(F)cc4)c4cccc(F)n4)CC3)cc2N1` (single isomer, unassigned) [Example 118, 6-[4-[(S or R)-(4-fluorophenyl)-(6-fluoro-2-pyridyl)methyl]piperidine-1-carbonyl]-4H-1,4-benzoxazin-3-one], for which the IC50 turned out to be 4.8 nM.

On to `O=C1COc2ccc(C(=O)N3CCC(C(c4ccc(F)cc4)c4cccc(F)n4)CC3)cc2N1` (single isomer, unassigned) [Example 119, 6-[4-[(R or S)-(4-Fluorophenyl)-(6-fluoro-2-pyridyl)methyl]piperidine-1-carbonyl]-4H-1,4-benzoxazin-3-one], for which the half-inhibitory concentration (IC50) was determined as 9.1 nM.

On to `COc1cccc(C(c2ccc(F)cc2)C2CCN(C(=O)c3ccc4c(c3)NC(=O)CO4)CC2)c1` (single isomer, unassigned) [Example 120, 6-[4-[(R or S)-(4-Fluorophenyl)-(3-methoxyphenyl)methyl]piperidine-1-carbonyl]-4H-1,4-benzoxazin-3-one], for which the half-inhibitory concentration (IC50) was 0.6 nM.

For `COc1cccc(C(c2ccc(F)cc2)C2CCN(C(=O)c3ccc4c(c3)NC(=O)CO4)CC2)c1` (single isomer, unassigned) [Example 121, 6-[4-[(S or R)-(4-Fluorophenyl)-(3-methoxyphenyl)methyl]piperidine-1-carbonyl]-4H-1,4-benzoxazin-3-one], the IC50 is 0.4 nM.

Take `COc1ccc(C(c2cccnc2)C2CCN(C(=O)c3ccc4c(c3)NC(=O)CO4)CC2)cc1OC` (single isomer, unassigned) [Example 122, 6-[4-[(R or S)-(3,4-Dimethoxyphenyl)-(3-pyridyl)methyl]piperidine-1-carbonyl]-4H-1,4-benzoxazin-3-one]: the IC50 worked out at 3.6 nM.

As to `COc1ccc(C(c2cccnc2)C2CCN(C(=O)c3ccc4c(c3)NC(=O)CO4)CC2)cc1OC` (single isomer, unassigned) [Example 123, 6-[4-[(S or R)-(3,4-Dimethoxyphenyl)-(3-pyridyl)methyl]piperidine-1-carbonyl]-4H-1,4-benzoxazin-3-one], the IC50 was 8.7 nM.

Turning to `COc1ccc(C(c2ccncc2)C2CCN(C(=O)c3ccc4c(c3)NC(=O)CO4)CC2)cc1OC` (single isomer, unassigned) [Example 125, 6-[4-[(S or R)-(3,4-Dimethoxyphenyl)-(4-pyridyl)methyl]piperidine-1-carbonyl]-4H-1,4-benzoxazin-3-one], the IC50 is 7.7 nM.

Consider `COc1ccc(C(c2ccncc2)C2CCN(C(=O)c3ccc4c(c3)NC(=O)CO4)CC2)cc1OC` (single isomer, unassigned) [Example 126, 6-[4-[(R or S)-(3,4-Dimethoxyphenyl)-(4-pyridyl)methyl]piperidine-1-carbonyl]-4H-1,4-benzoxazin-3-one], for which the IC50 was 8.5 nM.

For the molecule `CS(=O)(=O)c1cccc(C(c2ccccc2)C2CCN(C(=O)c3ccc4c(c3)NC(=O)CO4)CC2)c1` (single isomer, unassigned) [Example 128, 6-[4-[(S or R)-(3-Methylsulfonylphenyl)-phenyl-methyl]piperidine-1-carbonyl]-4H-1,4-benzoxazin-3-one], the concentration for half-maximal inhibition (IC50) was 0.6 nM.

For `CS(=O)(=O)c1cccc(C(c2ccccc2)C2CCN(C(=O)c3ccc4c(c3)NC(=O)CO4)CC2)c1` (single isomer, unassigned) [Example 129, 6-[4-[(R or S)-(3-Methylsulfonylphenyl)-phenyl-methyl]piperidine-1-carbonyl]-4H-1,4-benzoxazin-3-one], the IC50 was determined as 12.2 nM.

With `O=C1COc2cc(F)c(C(=O)N3CCC(C(c4ccccc4)c4ccccc4)CC3)cc2N1` [Example 1, 6-(4-Benzhydrylpiperidine-1-carbonyl)-7-fluoro-4H-1,4-benzoxazin-3-one], the IC50 was determined as 0.95 nM.

As for `O=C1COc2ccc(C(=O)N3CCC(C(c4ccccc4)c4ccccc4)CC3)cc2N1` [Example 2, 6-(4-Benzhydrylpiperidine-1-carbonyl)-4H-1,4-benzoxazin-3-one], the IC50 was 0.5 nM.

In the case of `O=C1COc2ccc(C(=O)N3CCC(C(c4ccc(F)cc4)c4ccc(F)cc4)CC3)cc2N1` [Example 3, 6-[4-[Bis(4-fluorophenyl)methyl]piperidine-1-carbonyl]-4H-1,4-benzoxazin-3-one], the IC50 was determined as 2.03 nM.

`O=C1COc2ccc(C(=O)N3CCC(C(c4ccccc4)c4ccc(Cl)c(Cl)c4)CC3)cc2N1` (stereo not drawn) [Example 4, 6-[4-[(3,4-Dichlorophenyl)-phenylmethyl]piperidine-1-carbonyl]-4H-1,4-benzoxazin-3-one]: the IC50 was found to be 0.69 nM.

As to `O=C1COc2ccc(C(=O)N3CCC(C(O)(c4ccccc4)c4ccccc4)CC3)cc2N1` [Example 5, 6-[4-[Hydroxy(diphenyl)methyl]piperidine-1-carbonyl]-4H-1,4-benzoxazin-3-one], the IC50 was determined as 15 nM.

Consider `O=C1COc2ccc(C(=O)N3CCC(c4c[nH]c5ccccc45)CC3)cc2N1` [Example 18, 6-[4-(1H-indol-3-yl)piperidine-1-carbonyl]-4H-1,4-benzoxazin-3-one], for which the IC50 came out at 33 nM.

With `O=C1COc2ccc(C(=O)N3CCC(c4c[nH]c5ccc(Cl)cc45)CC3)cc2N1` [Example 20, 6-[4-(5-chloro-1H-indol-3-yl)piperidine-1-carbonyl]-4H-1,4-benzoxazin-3-one], the IC50 is 3.55 nM.

`O=C1COc2ccc(C(=O)N3CCC(c4c[nH]c5cc(Cl)ccc45)CC3)cc2N1` [Example 21, 6-[4-(6-chloro-1H-indol-3-yl)piperidine-1-carbonyl]-4H-1,4-benzoxazin-3-one]: the IC50 amounted to 14 nM.

`O=C1COc2ccc(C(=O)N3CCC(c4c[nH]c5ccc(F)cc45)CC3)cc2N1` [Example 22, 6-[4-(5-fluoro-1H-indol-3-yl)piperidine-1-carbonyl]-4H-1,4-benzoxazin-3-one]: the half-inhibitory concentration (IC50) amounted to 8.27 nM.

For `O=C1COc2ccc(C(=O)N3CCC(c4c[nH]c5cc(F)ccc45)CC3)cc2N1` [Example 23, 6-[4-(6-fluoro-1H-indol-3-yl)piperidine-1-carbonyl]-4H-1,4-benzoxazin-3-one], the IC50 was 10.6 nM.

Turning to `COc1ccc2[nH]cc(C3CCN(C(=O)c4ccc5c(c4)NC(=O)CO5)CC3)c2c1` [Example 24, 6-[4-(5-methoxy-1H-indol-3-yl)piperidine-1-carbonyl]-4H-1,4-benzoxazin-3-one], the IC50 is 20 nM.

With `O=C1COc2ccc(C(=O)N3CCC(c4c[nH]c5cc(C(F)(F)F)ccc45)CC3)cc2N1` [Example 25, 6-[4-[6-(trifluoromethyl)-1H-indol-3-yl]piperidine-1-carbonyl]-4H-1,4-benzoxazin-3-one], the IC50 was 29 nM.

On to `Cn1cc(C2CCN(C(=O)c3cc4c(cc3F)OCC(=O)N4)CC2)c2cc(Cl)c(F)cc21` [Example 26, 6-[4-(5-chloro-6-fluoro-1-methylindol-3-yl)piperidine-1-carbonyl]-7-fluoro-4H-1,4-benzoxazin-3-one], for which the IC50 came out at 1.8 nM.

As to `Cn1cc(C2CCN(C(=O)c3ccc4c(c3)NC(=O)CO4)CC2)c2cc(Cl)c(F)cc21` [Example 27, 6-[4-(5-chloro-6-fluoro-1-methylindol-3-yl)piperidine-1-carbonyl]-4H-1,4-benzoxazin-3-one], the IC50 was 2.8 nM.

As for `Cn1cc(C2CCN(C(=O)c3cc4c(cc3F)OCC(=O)N4)CC2)c2cc(Cl)ccc21` [Example 28, 6-[4-(5-chloro-1-methylindol-3-yl)piperidine-1-carbonyl]-7-fluoro-4H-1,4-benzoxazin-3-one], the IC50 turned out to be 1 nM.

Take `Cn1cc(C2CCN(C(=O)c3ccc4c(c3)NC(=O)CO4)CC2)c2cc(Cl)ccc21` [Example 29]: the IC50 amounted to 1.7 nM.

Consider `Cn1cc(C2CCN(C(=O)c3ccc4c(c3)NC(=O)CO4)CC2)c2ccc(Cl)cc21` [Example 30, 6-[4-(6-chloro-1-methylindol-3-yl)piperidine-1-carbonyl]-4H-1,4-benzoxazin-3-one], for which the IC50 came to 22.9 nM.

As to `Cn1cc(C2CCN(C(=O)c3ccc4c(c3)NC(=O)CO4)CC2)c2ccccc21` [Example 31, 6-[4-(1-methylindol-3-yl)piperidine-1-carbonyl]-4H-1,4-benzoxazin-3-one], the IC50 was found to be 28.9 nM.
